Laboratory results taken from US20090088380A1, “GHRH ANALOGS AND THERAPEUTIC USES THEREOF” (priority 2007, published 2009).
Where “and” joins values, the source holds several entries; their conditions need not be identical. Equal values may be shown once. Non-standard residues stand in square brackets, D forms with d. Residues, ends and D or L forms follow the SMILES beside them.

Experiments:
[1] = In vitro proteolysis assay in human serum; type: in vitro ADME
Experimental: Proteolysis was stopped by adding 800 μl of ice-cold stop buffer (potassium-phosphate buffer, acidified to pH 0.8 with trifluoroacetic acid (TFA) and boiling 5 min (rat serum only). After centrifugation (12000 g, 5 min, 4° C.) (rat serum only), serum-peptide mixtures were passed through a conditioned Sep-Pak C-18 cartridge to extract native GHRH or a GHRH analog residual concentrations from serum proteins. The native GHRH or the analog was eluted in 2 ml of 50% acetonitrile-0.01% TFA/50% 0.01% aqueous TFA. 200 μl of extracted peptide, representing 1 μg of GHRH or analog at time 0, was quantified by analytical HPLC, using one μ-Bondapak C18 column (10 μm particle size, 0.39×15 cm) (rat serum) or two C18 columns in series (human serum and plasma) and a binary solvent system composed of NaClO4 0.01 M, pH 2.5 and acetonitrile. A linear gradient from 30 to 60% acetonitrile over 45 min (rat serum) or 30 to 50% (human serum and plasma) was used. Elution of intact peptide was monitored at 214 nm and residual concentration determined by assessment of peak surface areas.

Sprague-Dawley rats = conditions: rat, in vivo
Experimental: In order to assess such use of the GHRH analogs, the following experiments were undertaken. More specially, the goal was to assess the pharmacodynamic and pharmacokinetic profiles and acute toxicity of GHRH analog #5 when administered once by subcutaneous or intravenous injection to female Sprague-Dawley rats followed by a 14-day observation period and the pharmacodynamic profile in a male Beagle dog when the GHRH analog was administered at escalating doses to the same dog by subcutaneous injection with at least 2-day washout period. The above GHRH analog is a variation of a synthetic acetate salt of an amidated synthetic 29-amino acid peptide that corresponds to the amino-terminal segment of the naturally-occurring human growth hormone—releasing hormone (GHRH) with four amino acid substitutions in positions 2, 10, 15, and 22.
Human GHRH analog #5 in 0.9% sodium chloride for injection USP was administered once either by intravenous (IV) or subcutaneous (SC) injection to female rats followed by a 14-day observation period, as shown in Table 2. Prior to administration, all dosing formulations were filtered using a 0.22 μm filter to ensure sterility. The actual amount of GHRH analog #5 administered was calculated and adjusted based on the animal's most recent body weight. Dosing started at approximately the same time each day, commencing at 9:00 am ±30 minutes.

in vivo = conditions: Beagle, dog
Experimental: No mortality, adverse clinical sign, effects on body weight, food consumption, opthalmology, haematology, coagulation, clinical chemistry, urinalysis or organ weights were noted following the dosing or recovery periods. Microscopic findings at the injection sites were noted among treated animals, however, the changes were reversed following the recovery period. A no adverse effect level for this study was determined to be 3 mg/kg.

[2] = system: malnourished subjects with CKD; assay: Phase II CKD: 24-h urinary electrolytes; type: in vivo, human; conditions: for Calcium excretion: mean (SD) / Calcium/Creatinine ratio: median / EER Calcium: mean (SD) / EER Chloride: mean (SD) / EER Phosphate: mean (SD) / EER Potassium: mean (SD) / EER Sodium: mean (SD) / EFER Calcium: mean (SD) / EFER Chloride: mean (SD) / EFER Phosphate: mean (SD) / EFER Potassium: mean (SD) / EFER Sodium: mean (SD) / Fractional Pi reabsorption rate Pi/GFR: mean (SD) / Sodium excretion: mean (SD): ITT population
Experimental: Subjects collected 24-hour urine samples at screening, baseline (Days 0 to 1) and Days 28 to 29. All of the samples were analysed for creatinine and urea clearance (mL/min). The samples collected at baseline and on Day 28 were also analysed for proteinuria (Coumassie method), PNA, sodium, potassium, chloride, calcium and phosphate. GFR was calculated using the Cockcroft-Gault formula: Electrolyte excretion rates were calculated as follows: ? [formula] Electrolyte fractional excretion rates were calculated as follows: [formula]

[3] = system: malnourished subjects with CKD; assay: Phase II CKD: dietary assessment (spontaneous nutrient intake); type: in vivo, human; conditions: ITT
Experimental: Dietary assessments were performed at the baseline visit and were repeated on Day 28. The subjects were asked to write down everything they ate and drank throughout the 3 days preceding the visit. The local dietician then calculated the mean amount of carbohydrates, fat and protein consumed by the subjects per day and calculated energy intake.

[4] = GHRH vs placebo, changes from baseline to Day 28
[5] = GHRH vs placebo, ANCOVA, assuming log-normal distribution
[6] = Baseline, listed as GHRH(1-29)NH2 synthetic analog
[7] = Day 28, listed as GHRH(1-29)NH2 synthetic analog

CC[C@H](C)[C@H](NC(=O)[C@H](C)NC(=O)[C@H](CC(=O)O)NC(=O)[C@@H](C)NC(=O)[C@@H](N)Cc1ccc(O)cc1)C(=O)N[C@@H](Cc1ccccc1)C(=O)N[C@H](C(=O)N[C@@H](CC(N)=O)C(=O)N[C@@H](CO)C(=O)N[C@H](Cc1ccc(O)cc1)C(=O)N[C@@H](CCCNC(=N)N)C(=O)N[C@@H](CCCCN)C(=O)N[C@H](C(=O)N[C@@H](CC(C)C)C(=O)N[C@H](C)C(=O)N[C@@H](CCC(N)=O)C(=O)N[C@@H](CC(C)C)C(=O)N[C@@H](CO)C(=O)N[C@@H](C)C(=O)N[C@@H](CCCNC(=N)N)C(=O)N[C@@H](CCCCN)C(=O)N[C@@H](CCCCN)C(=O)N[C@@H](CC(C)C)C(=O)N[C@@H](CCC(N)=O)C(=O)N[C@@H](CC(=O)O)C(=O)N[C@H](C(=O)N[C@@H](CCSC)C(=O)N[C@@H](CO)C(=O)N[C@@H](CCCNC(=N)N)C(N)=O)[C@@H](C)CC)C(C)C)[C@@H](C)O [GHRH analog #5, [D-Ala^2, D-Tyr^10, D-Ala^15, Lys^22] hGHRH(1-29)-NH2] (H-Y[dA]DAIFTNS[dY]RKVL[dA]QLSARKKLQDIMSR-NH2)
R2 (60 min) ([1]; 60-min incubation in human serum): 1.55 ± 0.04
R2 (180 min) ([1]; 180-min incubation in human serum): 2.93 ± 0.87
Mean residual amount (%) ([1]; human serum, IT 0 min): 100%
Treatment-related clinical signs (Sprague-Dawley rats): No treatment-related clinical signs were observed
NOAEL at 672 h (in vivo): 3 mg/kg
Calcium excretion: mean (SD) ([2]; Baseline): 0.988 (0.916) mmol/m^2/24 h
Calcium/Creatinine ratio: median ([2]; Baseline): 0.145
EER Calcium: mean (SD) ([2]; Baseline): 0.027 (0.027) mmol/kg/24 h
EER Chloride: mean (SD) ([2]; Baseline): 2.213 (0.963) mmol/kg/24 h
EER Phosphate: mean (SD) ([2]; Baseline): 0.328 (0.220) mmol/kg/24 h
EER Potassium: mean (SD) ([2]; Baseline): 0.839 (0.332) mmol/kg/24 h
EER Sodium: mean (SD) ([2]; Baseline): 2.428 (1.134) mmol/kg/24 h
EFER Calcium: mean (SD) ([2]; Baseline): 1.933 (1.164) %
EFER Chloride: mean (SD) ([2]; Baseline): 3.636 (1.945) %
EFER Phosphate: mean (SD) ([2]; Baseline): 35.882 (14.172) %
EFER Potassium: mean (SD) ([2]; Baseline): 28.325 (13.618) %
EFER Sodium: mean (SD) ([2]; Baseline): 3.068 (1.658) %
Fractional Pi reabsorption rate Pi/GFR: mean (SD) ([2]; Baseline): 0.861 (0.291) mmol/ml
Sodium excretion: mean (SD) ([2]; Baseline): 89.90 (42.10) mmol/m^2/24 h
Calcium excretion: mean (SD) ([2]; Day 28): 1.295 (1.231) mmol/m^2/24 h
Calcium/Creatinine ratio: median ([2]; Day 28): 0.195
EER Calcium: mean (SD) ([2]; Day 28): 0.036 (0.036) mmol/kg/24 h
EER Chloride: mean (SD) ([2]; Day 28): 2.277 (1.028) mmol/kg/24 h
EER Phosphate: mean (SD) ([2]; Day 28): 0.273 (0.129) mmol/kg/24 h
EER Potassium: mean (SD) ([2]; Day 28): 0.656 (0.315) mmol/kg/24 h
EER Sodium: mean (SD) ([2]; Day 28): 2.624 (1.020) mmol/kg/24 h
EFER Calcium: mean (SD) ([2]; Day 28): 2.743 (2.157) %
EFER Chloride: mean (SD) ([2]; Day 28): 4.156 (2.541) %
EFER Phosphate: mean (SD) ([2]; Day 28): 35.968 (12.979) %
EFER Potassium: mean (SD) ([2]; Day 28): 26.766 (18.120) %
EFER Sodium: mean (SD) ([2]; Day 28): 3.359 (1.156) %
Fractional Pi reabsorption rate Pi/GFR: mean (SD) ([2]; Day 28): 0.829 (0.211) mmol/ml
Sodium excretion: mean (SD) ([2]; Day 28): 96.70 (37.30) mmol/m^2/24 h
Calcium excretion: adjusted difference [2, 4]: −0.10 mmol/m^2/24 h
EER Calcium: adjusted difference [2, 4]: −0.002 mmol/kg/24 h
EER Chloride: adjusted difference [2, 4]: −0.136 mmol/kg/24 h
EER Phosphate: adjusted difference [2, 4]: 0.020 mmol/kg/24 h
EER Potassium: adjusted difference [2, 4]: −0.086 mmol/kg/24 h
EER Sodium: adjusted difference [2, 4]: −0.020 mmol/kg/24 h
EFER Calcium: adjusted difference [2, 4]: −0.48%
EFER Chloride: adjusted difference [2, 4]: −1.13%
EFER Phosphate: adjusted difference [2, 4]: −3.64%
EFER Potassium: adjusted difference [2, 4]: −7.93%
Fractional Pi reabsorption rate Pi/GFR: adjusted difference [2, 4]: -0.00006 mmol/mL
Sodium excretion: adjusted difference [2, 4]: −1.18 mmol/m^2/24 h
Calcium/Creatinine ratio: ratio (ratio of means) [2, 5]: 0.82
EFER Sodium: ratio (ratio of means) [2, 5]: 0.79
Calcium excretion: mean difference between groups ([2]; in vivo): −0.10 mmol/m^2/24 h
Calcium:creatinine ratio: ratio of means ([2]; in vivo): 0.82
EER chloride: mean difference between groups ([2]; in vivo): −0.136 mmol/kg/24 h
EER phosphate: mean difference between groups ([2]; in vivo): 0.020 mmol/kg/24 h
EER potassium: mean difference between groups ([2]; in vivo): −0.086 mmol/kg/24 h
EER sodium: mean difference between groups ([2]; in vivo): −0.020 mmol/kg/24 h
EFER chloride: mean difference between groups ([2]; in vivo): −1.13%
EFER phosphate: mean difference between groups ([2]; in vivo): −3.64%
EFER potassium: mean difference between groups ([2]; in vivo): −7.93%
EFER sodium: ratio of means ([2]; in vivo): 0.79
Electrolyte excretion rate (EER) calcium: mean difference between groups in change baseline to Day 28 ([2]; in vivo): −0.002 mmol/kg/24 h
Electrolyte fractional excretion rate (EFER) calcium: mean difference between groups ([2]; in vivo): −0.48%
Fractional Pi reabsorption rate (Pi/GFR): mean difference between groups ([2]; in vivo): -0.000059 mmol/mL
Sodium excretion: mean difference between groups ([2]; in vivo): −1.18 mmol/m^2/24 h
Fractional Pi reabsorption rate (Pi/GFR): mean difference between groups ([2]; in vivo, listed as GHRH(1-29)NH2 synthetic analog): -0.00006 mmol/mL
Energy intake: mean (SD) ([3]; Baseline): 1654 kcal/day and 1654.45 (394.75) kcal/day
Protein intake: mean (SD) ([3]; Baseline): 62.46 g/day and 62.46 (17.71) g/day
Energy intake: mean (SD) [3, 6]: 1654.5 kcal/day
Protein intake: mean (SD) [3, 6]: 62.5 g/day
Energy intake: mean (SD) ([3]; Day 28): 1533 kcal/day and 1532.70 (384.52) kcal/day
Protein intake: mean (SD) ([3]; Day 28): 58.49 g/day and 58.49 (19.76) g/day
Energy intake: mean (SD) [3, 7]: 1532.7 kcal/day
Protein intake: mean (SD) [3, 7]: 58.5 g/day
